{"source": "patent US8916604B2", "about": "“Compositions and methods for epigenetic modification of nucleic acid sequences” (Rutgers, The State University of New Jersey, priority 2011, dated 2014)", "key": {"[1]": {"test_system": "antioxidant response element (ARE)", "assay": "ARE-luciferase reporter assay with combination index calculation", "assay_type": "cell-based, human", "description": "The stably transfected single clone HepG2-ARE-C8 (HepG2-C8) cell line has been established previously in our laboratory using the […]-luciferase reporter gene. The cells were maintained in Dulbecco's modified Eagle medium supplemented with 10% fetal bovine serum (FBS), 1.17 g/l sodium bicarbonate, and 100 unit/ml penicillin, 100 μg/ml streptomycin at 37° C. in a humidified incubator with 5% CO2. The HepG2-C8 cells were cultured in 12-well plates and each well contained 1 million cells in 1 ml of 10% FRS medium. The cells were treated with compounds for 24 h. The luciferase activity was determined using a luciferase kit from Promega (Madison, USA) according to the manufacturer's instructions. Briefly, after treatments for 24 h, the cells were washed twice with ice-cold phosphate buffered-saline (PBS, pH 7.4) and harvested in 1× reporter lysis buffer and […]. After centrifugation at 4° C., 12000 rpm for 5 min, a 10 μl aliquot of the supernatant was assayed for luciferase activity with a Sirius luminometer (Berthold Detection System GmbH, Pforzheim, Germany). The luciferase activity was normalized against protein concentration, determined by a BCA protein assay (Pierce, Rockford, USA), and expressed as the fold induction over the luciferase activity of control vehicle-treated cells. At least two to three independent studies were conducted in triplicates. To determine the synergistic effect between the combination of two different compounds, the combination index (CI) was calculated with the following formula: […] This approach is based on the Loewe additivity model and although the exact mechanism of interaction may be unknown, this model is one of the most commonly used reference models for evaluating potential drug-drug interactions Lee et al., J Biopharm Stat 2007; 17: 461-480)."}, "[2]": {"test_system": "TRAMP mice", "assay": "DIM-supplemented diet, prostate tumorigenesis in TRAMP males", "assay_type": "in vivo, mouse", "settings": "for Incidence of palpable tumor: sacrificed at 24 weeks, control 6/19; for Incidence of lymph nodes metastasis: control 5/19; for histological incidence of HG-PIN: control 54%", "description": "Female hemizygous C57BL/TGN TRAMP mice, line PB Tag 8247NG, and male C57BL/6 mice were purchased from The Jackson Laboratory (Bar Harbor, Me., U.S.A.). The animals were bred on the same genetic background C57BL/6 and maintained in the Laboratory Animal Service facility at Rutgers University. Housing and care of the animals was performed in accordance with the guidelines established by the University's Animal Research Committee consistent with the NIH Guidelines for the Care and Use of Laboratory Animals, Transgenic males for the studies were obtained as [TRAMP×C57BL/6] F1 or [TRAMP×C57BL/6] […] Throughout the experiment the animals were housed in a temperature-control led room (68-72° F.) with a 12 h light dark cycle, at a relative humidity of 45% to 55%.\nDIM was obtained from Sigma-Aldrich (St. Louis, Mo., U.S.A.). MN-76A diets containing 1% DIM were prepared by Research Diets Inc. (New Brunswick, N.J., U.S.A.) and stored at −20° C. The dose was chosen based in part on studies reported previously Anderton et al., Drug Metab Dispos. 2004; 32: 632-8; and Xue et al., J Nutr Biochem. 2008; 19: 336-44). In our present study, 1% DIM was well-tolerated with these TRAMP mice. The control TRAMP males (n=19) received A1N-76A diets throughout the experiment while the treated TRAMP males received 1% DIM diet starting from eight weeks of age (n=9) as Group 1 (D-G1) and Group 2 (D-G2) starting from twelve weeks of age (n=8) (FIG. 12A). Fresh diets were added to the cages twice weekly.\nTRAMP males were weighed weekly and the overall health of the animals was monitored on a regular basis. All mice were sacrificed at the age of 24 weeks by carbon dioxide euthanasia and the genitourinary apparatus (GU) consisting of the seminal vesicles, prostate, and bladder were isolated for further analyses (FIG. 12B).\nThe dorso-lateral prostate (n=5) was excised and fixed in 10% formalin for 24 b and then transferred to 70% ethanol for 24 h. After dehydration processing, and embedding with paraffin, tissue sections ([…]) were cut from paraffin embedded prostate tissue and mounted on slides. The sections were stained with Hematoxylin and Eosin (H&E) to examine any neoplastic changes. Sections were evaluated by a histopathologist in a blinded fashion to classify prostatic intra-epithelial neoplasia (PIN) lesion, as we have reported previously (8, 12, 13, 30), Lesions were classified as PIN I, PIN II, PIN III, and PIN IV (Park et al., Am J Pathol. 2002; 161: 727-35). For ease of classification, PIN I and PIN II were combined as low grade PIN (LG-PIN) while PIN III and PIN IV were combined as high grade PIN (HG-PIN) as we have performed previously (8, 12, 30, 31)."}, "[3]": {"settings": "D-G2: 1% DIM diet from 12 weeks of age, p<0.05"}}, "data": [{"compound": "c1ccc2c(Cc3c[nH]c4ccccc34)c[nH]c2c1", "note": "[DIM, 3,3′-diindolylmethane]", "values": [{"measurement": "induction of ARE-luciferase", "setting": "[1]; 75 μM, 24 h, compared with any other treatment (p<0.05)", "result": "strongly induced"}, {"measurement": "induction of ARE-luciferase", "setting": "[1]; doses lower than 25 μM, 10% FBS medium (data not shown)", "result": "no significant induction"}, {"measurement": "Incidence of palpable tumor", "setting": "[2]; D-G1: 1% DIM diet from 8 weeks of age", "result": "1/9^a,"}, {"measurement": "Incidence of lymph nodes metastasis", "setting": "[2]; D-G1: 1% DIM diet from 8 weeks of age, p<0.05", "result": "0/9^b, #"}, {"measurement": "histological incidence of carcinoma", "setting": "[2]; D-G1, control 46%", "result": 20, "unit": "%"}, {"measurement": "histological incidence of HG-PIN", "setting": "[2]; D-G1", "result": 20, "unit": "%"}, {"measurement": "wet genitourinary apparatus (GU) weight", "setting": "[2]; D-G1 and D-G2 vs non-treated control, p<0.05", "result": "statistically significant decrease"}, {"measurement": "histological incidence of LG-PIN", "setting": "[2]; D-G2", "result": 20, "unit": "%"}, {"measurement": "histological incidence of carcinoma", "setting": "[2]; D-G2", "result": "no carcinoma"}, {"measurement": "Incidence of palpable tumor", "setting": "[2]; [3]", "result": "0/8^a, *"}, {"measurement": "Incidence of lymph nodes metastasis", "setting": "[2]; [3]", "result": "0/8^b, #"}, {"measurement": "histological incidence of HG-PIN", "setting": "[2]; D-G2", "result": 80, "unit": "%"}, {"measurement": "incidence of lymph node metastasis", "setting": "[2]; DIM-treated mice overall vs 26.3% in control", "result": 0, "unit": "%"}, {"measurement": "percentage of palpable tumor", "setting": "[2]; DIM-treated mice overall vs 31.6% in control", "result": 5.8, "unit": "%"}]}]}
